From patent publication US20070037883A1, “Therapeutic compositions” (priority 2003, published 2007)
“Also recorded” adds a separate entry of the source.

What was measured:
[1] = target: T1, gp91phox-containing NADPH-oxidase in the mouse macrophage cell line J774 (Mus musculus, UniProt Q61093); test: NADPH oxidase activity in intact J774 mouse macrophages; format: cell-based; conditions: FIG. 2b
T1 construct: endogenous in cells; host or cells: J774 mouse macrophage cell line (intact cells)
T1 sequence (Q61093 2-570 limits assumed): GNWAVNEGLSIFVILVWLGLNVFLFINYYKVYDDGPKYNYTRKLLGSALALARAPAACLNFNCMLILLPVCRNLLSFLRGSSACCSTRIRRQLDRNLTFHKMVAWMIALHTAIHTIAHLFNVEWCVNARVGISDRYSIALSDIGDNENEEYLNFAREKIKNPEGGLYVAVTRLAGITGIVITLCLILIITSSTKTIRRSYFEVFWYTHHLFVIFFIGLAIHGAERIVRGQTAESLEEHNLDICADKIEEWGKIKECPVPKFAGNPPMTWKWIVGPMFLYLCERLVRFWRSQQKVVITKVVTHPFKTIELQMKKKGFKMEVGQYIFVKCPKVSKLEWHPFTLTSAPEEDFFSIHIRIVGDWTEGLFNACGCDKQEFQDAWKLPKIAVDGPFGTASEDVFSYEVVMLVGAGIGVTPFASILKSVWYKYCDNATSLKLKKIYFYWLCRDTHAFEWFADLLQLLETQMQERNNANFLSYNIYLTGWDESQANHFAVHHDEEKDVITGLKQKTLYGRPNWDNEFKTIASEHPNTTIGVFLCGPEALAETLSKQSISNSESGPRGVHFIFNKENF
T1 sequence (Q61462 1-192 partner): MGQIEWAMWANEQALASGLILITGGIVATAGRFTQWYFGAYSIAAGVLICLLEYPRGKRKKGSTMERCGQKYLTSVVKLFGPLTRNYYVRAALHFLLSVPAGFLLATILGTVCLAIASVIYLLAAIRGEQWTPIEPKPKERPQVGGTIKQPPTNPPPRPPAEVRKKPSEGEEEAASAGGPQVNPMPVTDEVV

[2] = tested on: atherosclerotic lesion formation in ApoE−/− mice; test: Atherosclerotic lesion formation in aortas of fat-fed ApoE mutant mice; format: in vivo, mouse; conditions: high-fat diet, weekly s.c. suramin for 4 months, vs saline
Description: ApoE^−/− mice: Whole aortas are isolated and cut open via an incision along the ventral wall [Jiang et al., 2001, supra]. Tissues are rinsed with 60% v/v isopropanol and stained with oil red O (0.5%) for 10 minutes at room temperature. After staining, tissues are rinsed in 60% v/v sopropanol and preserved in 10% v/v neutral buffered formalin. The en face surface of the aorta is then imaged and lesion area (red-stained) quantified using MCID imaging analysis software.
Twelve-week-old ApoE mutant mice were fed a high fat diet for a further 4 months. During this 4 month period, the mice were given weekly subcutaneous injections of saline or suramin. Specifically, mice were initially dosed with two weekly injections of 300 mg/kg suramin. Four weeks later a 25 mg/kg dose of suramin was administered, and then weekly doses of 15 mg/kg suramin were administered for a further 11 weeks. At the end of the treatment period, mice were killed by anaesthetic overdose and the aorta was removed, cleaned of adherent fat on the adventitial surface, and then cut longitudinally along the entire length. […] The en face surface of the aorta was then imaged and lesion area (red-stained) quantified and expressed as a percent of total luminal surface area for each of: total aorta, thoracic aorta, abdominal aorta, and aortic arch. […]

rat basilar artery = test: Acetylcholine-induced dilator responses of the rat basilar artery in vivo after subarachnoid haemorrhage; conditions: suramin 300 mg/kg s.c. over 7 days, 2 days after SAH, FIG. 14
Description: Subarachnoid hemorrhage: On Day 0, rats are briefly anaesthetized (pentobarbital 50 mg/kg ip) and an osmotic minipump containing either saline or suramin is implanted subcutaneously. The dose rate of suramin is 300 mg/kg per 7 days. On Day 5, rats are again anaesthetized and 0.3 ml of blood is withdrawn from a femoral artery and injected into the cerebrospinal fluid around the ventral surface of the brain via the cisterna magna. In some control rats, saline is injected into the cerebrospinal fluid instead of arterial blood. The rat is allowed to recover for a further 2 days, and is then again anaesthetized on Day 7 for study.
Measurement of cerebral artery responses in vivo: Rats are anaesthetized with pentbarbital (50 mg/kg ip) and anaesthesia is maintained with supplemental pentobarbital (10-20 mg/kg per h iv). […] Basilar artery diameter is continuously measured using a computer-based image tracking device. The endothelium-dependent vasodilator acetylcholine is superfused over the basilar artery at a steady concentration of 1 micromolar for 3-5 minutes, and the increase in diameter is measured. The concentration of acetylcholine is then increased to 10, and then 100 micromolar in a similar manner and increases in diameter recorded. […] Responses to acetylcholine are then expressed as a percent of this maximum response. […]

effect on gp91phox-containing NADPH-oxidase in J774 macrophages / phagocytic cells ([1]; listed as Suramin): little effect
Structure (SMILES): Cc1ccc(C(=O)Nc2ccc(S(=O)(=O)O)c3cc(S(=O)(=O)O)cc(S(=O)(=O)O)c23)cc1NC(=O)c1cccc(NC(=O)Nc2cccc(C(=O)Nc3cc(C(=O)Nc4ccc(S(=O)(=O)O)c5cc(S(=O)(=O)O)cc(S(=O)(=O)O)c45)ccc3C)c2)c1 [suramin]
effect on gp91phox-containing NADPH-oxidase in J774 macrophages / phagocytic cells [1]: does not inhibit; also recorded: ineffective
atherosclerotic lesion area: total aorta, thoracic aorta, abdominal aorta ([2]; FIG. 12): markedly smaller lesion areas; also recorded: smaller lesion area
lesion size in the aortic arch ([2]; FIG. 12b): no effect
response of basilar artery diameter to acetylcholine in vivo after SAH (rat basilar artery): not impaired; also recorded: prevents any significant reduction
